Test system: GUMC-403
Test: viability at highest tested concentration (max response) relative to DMSO (% of DMSO control); higher = less cytotoxic
Conditions: library / dose series: MIPE library, 11-point 1:3 dilution, 48 h
Summary of the method: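 Patient-derived GUMC-403 papilloma cells grown by conditional reprogramming were plated at 700/well in 5 μL F + Y medium in 1536-well plates and incubated overnight at 37 °C. They then received 23 nL of MIPE 4.0 compounds by pin tool (11-point 1:3 series) for 48 h. CellTiter-Glo luminescence was read on a ViewLux and normalised with DMSO wells as 100% and empty wells as 0%. The value is viability at the highest tested concentration relative to DMSO control.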

Compound | viability (top concentration 46.1 µM) | also measured
CCOC(=O)O[C@]1(C(=O)OCCl)CC[C@H]2[C@@H]3CCC4=CC(=O)C=C[C@]4(C)[C@H]3[C@@H](O)C[C@@]21C | 149 | 
O=C(O)CCCCCC(=O)NN=C1CCCC1 | 108 | 
C=C1CCC2[C@](C)(CO)C(O)CC[C@]2(C)C1C/C=C1/C(=O)OCC1O (stereo partly drawn) |  | viability (top concentration 92.2 µM): 106
N#Cc1c(NC(=O)c2cccc3ccccc23)sc2c1CCCC2 | 109 | 
COc1ccc(CCC(=O)Nc2nc3ccc(Cl)cc3s2)cc1OC | 47.9 | 
C[C@@H]1CC[C@@]2(OC1)O[C@H]3C[C@H]4[C@@H]5C/C=C6/C[C@H](CC[C@]6(C)[C@H]5CC[C@]4(C)[C@H]3[C@@H]2C)O[C@@H]7O[C@H](CO)[C@@H](O[C@@H]8O[C@@H](C)[C@H](O)[C@@H](O)[C@H]8O)[C@H](O)[C@H]7O[C@@H]9O[C@@H](C)[C@H](O)[C@@H](O)[C@H]9O | 112 | 
COC1=CC2=C(C=C1OC)[C@H]3[C@@H](CO2)OC4=C(C=CC5=C4\C=C/C(C)(C)O5)C3=O | 115 | 
NC1CCC(Nc2nc(Nc3ccc(C(=O)N4CCCCC4)cc3)c3ncn(-c4cccc(F)c4)c3n2)CC1 (stereo not drawn) | 86 | 
NCC1CCC(C(=O)O)CC1 (stereo not drawn) | 115 | 
CCCCCCNC(=O)N1\C=C(F)/C(=O)NC1=O | 106 | 
CCCn1c(=O)c2[nH]c(C34CC5CC3C[C@@H](C5)C4)nc2n(CCC)c1=O | 122 | 
CC1(C)CC\C2=C(/O1)C3=C(C=CC=C3)C(=O)C2=O | 123 | 
Nc1nc2ccc(OC(F)(F)F)cc2s1 | 86.9 | 
CC(C[N+](C)(C)C)OC(N)=O (stereo not drawn) | 101 | 
CNC(=O)c1ccc2cc(C3(O)CCn4cncc43)ccc2c1 (stereo not drawn) | 106 | 
Nc1ncnc2c1ncn2[C@@H]1O[C@@H](CO)[C@H](O)[C@@H]1O |  | viability (top concentration 34.6 µM): 118
CC1=CC=C(C=C1)N(C\C2=N\CCN2)C3=CC=CC(=C3)O | 116 | 
CC1(C)CNc2cc(NC(=O)c3cccnc3NCc3ccncc3)ccc21 | 117 | 
C[C@]1(CO)CN(c2cc(C(=O)Nc3ccc4c(c3)-c3c(c(C(N)=O)nn3-c3ccc(F)cc3)CC4)c(Cl)cn2)C[C@@]1(C)CO | 64.7 | 
OC(=O)CNC(=O)\C1=C(/O)C2=CC=CC=C2N(CC3=CC=CC=C3)C1=O | 108 | 
COc1nc(-c2ccc3c(c2)OCO3)n(-c2ccc(NC(=O)CSc3ccccc3)cc2)n1 | 101 | 
Oc1ccc(-c2nc(-c3ccncc3)c(-c3ccc(F)cc3)[nH]2)cc1 | 102 | 
Cn1c(Nc2ccc(C(F)(F)F)cc2)nc2cc(Oc3ccnc(-c4nc(C(F)(F)F)c[nH]4)c3)ccc21 | 92.4 | 
CC(C)C1NC(=O)C(NC(=O)C2=C3\N=C\4/C(=C(C)\C(=O)\C(=C4C(=O)NC5C(C)OC(=O)C(C(C)C)N(C)C(=O)CN(C)C(=O)C6CCCN6C(=O)C(NC5=O)C(C)C)N)OC3=C(C)C=C2)C(C)OC(=O)C(C(C)C)N(C)C(=O)CN(C)C(=O)C7CCCN7C1=O (stereo not drawn) | 12.2 | 
C#Cc1cccc(Nc2ncnc3cc(OC)c(OCCCCCCC(=O)NO)cc23)c1 | 33.9 | 
O=C1c2c(O)cccc2[C@H]([C@@H]2O[C@H](CO)[C@@H](O)[C@H](O)[C@H]2O)c2cc(CO)cc(O)c21 | 119 | 

Compound | viability (top concentration 46.1 µM) | also measured
CCC1(C)CC(=O)NC1=O (stereo not drawn) | 94.5 | 
CC1=CC=C(C=C1)\C2=N\C3=CC=C(Cl)C=C3OC2 | 128 | 
O=C(O)c1cccc(-c2noc(-c3ccccc3F)n2)c1 | 118 | 
O=C(NCC1CN(c2ccc(N3CCOCC3=O)cc2)C(=O)O1)c1ccc(Cl)s1 (stereo not drawn) | 127 | 
CC1CCC(C(=O)N(c2cc(C#CC(C)(C)C)sc2C(=O)O)C2CCC(O)CC2)CC1 (stereo not drawn) | 106 | 
CCOC\1=C(/C(=O)NC2=CC=C(OC3=C(Cl)C(=NC=C3)N)C(=C2)F)C(=O)N(\C=C1)C4=CC=C(F)C=C4 | 77.8 | 
CC(C)OC(=O)[C@H](C)N[P@](=O)(OC[C@H]1O[C@@H](N2\C=C/C(=O)NC2=O)[C@](C)(F)[C@@H]1O)OC3=CC=CC=C3 | 107 | 
CC(=O)[C@H]1CC[C@H]2[C@@H]3C/C=C4/C[C@@H](O)CC[C@]4(C)[C@H]3CC[C@]12C | 115 | 
O=C(N[C@@H](c1ccccc1)[C@@H]1CCCCN1)c1cccc(C(F)(F)F)c1Cl | 99 | 
CC(C)Cn1cnc2c(N)nc3ccccc3c21 | 116 | 
c1ccc(CCCN2CCN(CCOC(c3ccccc3)c3ccccc3)CC2)cc1 | 88.7 | 
N#CC1(c2ccc(NC(=O)c3cccnc3NCc3ccncc3)cc2)CCCC1 | 101 | 
CC(C)n1nc(-c2ccc3oc(N)nc3c2)c2c(N)ncnc21 | 29.8 | 
N[S+](=O)([O-])c1cc2c(cc1Cl)NCN[S+]2(=O)[O-] | 108 | 
CC(=O)NC[C@H]1CN(c2ccc(N3CCOCC3)c(F)c2)C(=O)O1 | 120 | 
Cn1cc(-c2ccncc2)c(-c2ccc(OCc3ccc4ccccc4n3)cc2)n1 | 98.3 | 
NC(=O)c1c(OCc2c(F)cc(Br)cc2F)nsc1NC(=O)NCCCCN1CCCC1 | 101 | 
CC(=O)OCC(=O)[C@@]1(O)CC[C@H]2[C@@H]3CCC/4=C/C(=O)CC[C@]4(C)[C@H]3C(=O)C[C@]12C | 119 | 
O=C1Nc2ccccc2/C1=C1\Nc2ccccc2C1=O | 104 | 
C=C(C)[C@@H]1CC[C@]2(C(=O)O)CC[C@]3(C)[C@H](CC[C@@H]4[C@@]5(C)CC[C@H](O)C(C)(C)[C@@H]5CC[C@]43C)[C@@H]12 | 94.5 | 
N#C/N=C(\NCCCCCCOc1ccc(Cl)cc1)Nc1ccncc1 | 115 | 
CN[C@H]1[C@H](O[C@@H]2[C@H](O[C@@H]3[C@@H](O)[C@@H](O)[C@@H](NC(=N)N)[C@@H](O)[C@H]3NC(=N)N)O[C@H](C)[C@@]2(O)C=O)O[C@@H](CO)[C@@H](O)[C@H]1O |  | viability (top concentration 13.4 µM): 114
CCN(CC)CC#CCOC(=O)C(O)(c1ccccc1)C1CCCCC1 (stereo not drawn) | 127 | 
C=C[C@H]1CN2CCC1C[C@@H]2C(O)c1ccnc2ccc(OC)cc12 (stereo partly drawn) | 101 | 
N[C@@H](CC(=O)N1CCn2c(nnc2C(F)(F)F)C1)Cc1cc(F)c(F)cc1F | 97.9 | 
CCc1c(C(=O)C(N)=O)c2c(OCC(=O)O)cccc2n1Cc1ccccc1 | 103 | 

Compound | viability (top concentration 46.1 µM) | also measured
NC[C@@H]1O[C@H](O[C@H]2[C@@H](O)[C@H](O[C@@H]3[C@@H](O)[C@H](N)C[C@H](N)[C@H]3O[C@H]3O[C@H](CN)[C@@H](O)[C@H](O)[C@H]3N)O[C@@H]2CO)[C@H](N)[C@@H](O)[C@@H]1O.O=S(=O)(O)O.O=S(=O)(O)O.O=S(=O)(O)O | 119 | 
CCc1cc(/C(C)=N/OCc2ccc(C3CCCCC3)c(C(F)(F)F)c2)ccc1CN1CC(C(=O)O)C1 | 116 | 
COc1cc(OC)c(/C=C/[S+](=O)([O-])Cc2ccc(OC)c(NCC(=O)[O][Na])c2)c(OC)c1 | 118 | 
CN1\C(=C(O)/C2=C(C=C(Cl)S2)[S+]1([O-])=O)C(=O)NC3=NC=CC=C3 | 67.8 | 
CC(C)(O)C(=O)Nc1ccc([N+](=O)[O-])c(C(F)(F)F)c1 | 112 | 
C[N+](C)(C)CC(=O)O.[Cl-] | 113 | 
CC(C)(C)Cn1c(N)nc2ccc(-c3[nH]c(C(C)(C)C)nc3-c3ccc(F)cc3)nc21 | 76.7 | 
O=C(O)C1CCCN(CCC=C(c2ccccc2)c2ccccc2)C1 (stereo not drawn) | 102 | 
CCC(=O)NCC[C@@H]1CCc2ccc3c(c21)CCO3 | 122 | 
CC(C)(Sc1cc(C(C)(C)C)c(O)c(C(C)(C)C)c1)Sc1cc(C(C)(C)C)c(O)c(C(C)(C)C)c1 | 111 | 
C=C1/C(=C/C=C2\CCCC3(C)[C@@H]([C@H](C)/C=C/C=C/C(O)(CC)CC)CC[C@@H]23)C[C@@H](O)C[C@@H]1O (stereo partly drawn) | 148 | 
C[C@@H]1C(=O)O[C@H]2CC34[C@H]5C[C@@H](C(C)(C)C)C36[C@@H](OC(=O)[C@@H]6O)O[C@@]4(C(=O)O5)[C@]21O (stereo partly drawn) | 101 | 
C[C@]12COC(=O)C[C@@H]1CC[C@@H]1[C@@H]2CC[C@@]2(C)[C@H]1CC[C@]2(C)O | 108 | 
N[C@@H](Cc1ccc(N(CCCl)CCCl)cc1)C(=O)O | 143 | 
CN(Cc1cc(Br)cc(Br)c1N)C1CCCCC1 | 122 | 
C=C1C(=O)[C@@]23C(CC[C@@H]1[C@H]2O)[C@@]12CO[C@]3(O)[C@@H](O)[C@@H]1C(C)(C)CC[C@@H]2O (stereo partly drawn) | 119 | 
NC1=NC=C(C=C1)C2=CC=C3N=CC\4=C(N(C(=O)\C=C4)C5=CC(=CC=C5)C(F)(F)F)C3=C2 | 43.7 | 
CN1CCN(c2ccc([N+](=O)[O-])c3no[n+]([O-])c23)CC1 | 108 | 
Nc1ccc([S+](=O)([O-])Nc2ccccn2)cc1 | 115 | 
CC[C@@H]([C@H](C)O)n1ncn(-c2ccc(N3CCN(c4ccc(OCC5CO[C@@](Cn6cncn6)(c6ccc(F)cc6F)C5)cc4)CC3)cc2)c1=O (stereo partly drawn) | 101 | 
O=C(Nc1cccc(Br)c1)c1cccc([S+](=O)([O-])N2CCCCCC2)c1 | 111 | 
NC(=O)OCC(COC(N)=O)c1ccccc1 | 110 | 
COC1=CC=C2[C@H]3CC[C@]4(C)[C@H](CC[C@H]4[C@@H]3CCC2=C1)NCCCCCCN5C(=O)\C=C/C5=O | 129 | 
CN(C)[S+](=O)([O-])c1ccc2c(c1)C(=Cc1cc3c([nH]1)CCCC3)C(=O)N2 | 122 | 
C[C@]12CC[C@H]3[C@@H](CCC/4=C/C(=O)CC[C@]34C)[C@@H]1CC[C@@H]2O | 112 | 
CCCCCCCCCCCCCC(=O)N[C@H](CO)[C@H](O)c1ccc([N+](=O)[O-])cc1 | 116 | 
